# Data reported in publication PMC10026625 (RSC Advances, 2023).
# Test system: SARS-CoV-2 ancestral Wuhan strain (OMC-510) / VeroE6/TMPRSS2 cells
# Conditions: plaque reduction assay
compound,measurement,value
CC[C@H](C)[C@H](NC(C)=O)C(=O)N[C@@H](CO)C(=O)NCC(=O)N[C@H](C(=O)N[C@@H](CC(N)=O)C(=O)N[C@@H](C)C(=O)N[C@@H](CO)C(=O)N[C@H](C(=O)N[C@H](C(=O)N[C@@H](CC(N)=O)C(=O)N[C@H](C(=O)N[C@@H](CCC(N)=O)C(=O)N[C@@H](CCC(=O)O)C(=O)N[C@@H](CCC(=O)O)C(=O)N[C@H](C(=O)N[C@@H](CCCCN)C(=O)N[C@@H](CCCNC(=N)N)C(=O)N[C@@H](CC(C)C)C(=O)N[C@@H](CC(N)=O)C(=O)N[C@@H](CCC(=O)O)C(=O)N[C@H](C(=O)N[C@@H](C)C(=O)N[C@@H](CCCCN)C(=O)N[C@@H](CCCCN)C(=O)N[C@@H](CC(C)C)C(=O)N[C@@H](CC(N)=O)C(=O)N[C@@H](CCC(=O)O)C(=O)N[C@@H](CO)C(=O)N[C@@H](CC(C)C)C(=O)N[C@H](C(=O)N[C@@H](CC(=O)O)C(=O)N[C@@H](CC(C)C)C(=O)N[C@@H](CCC(N)=O)C(=O)N[C@@H](CCC(=O)O)C(N)=O)[C@@H](C)CC)C(C)C)[C@@H](C)CC)[C@@H](C)CC)C(C)C)C(C)C)[C@@H](C)CC [Peptide 3a],times higher antiviral activity than peptide 1a,~4 times
same,times higher antiviral activity than peptide 2a,approximately 10 times
